Experimental data taken from PMC12467033, “Exploring the Inhibitory Potential of Six Porphyrin Compounds Against α-Amylase and α-Glucosidase Linked to Diabetes” (Biomolecules, 2025).
Like-named read-outs stand apart in the source and are kept apart here.

What was measured:
α-amylase [1] = target: T1, α-amylase (Sus scrofa, UniProt P00690); assay: Mode of α-AMY inhibition (reversibility, Lineweaver–Burk kinetics); type: biochemical
T1 sequence (P00690 16-511): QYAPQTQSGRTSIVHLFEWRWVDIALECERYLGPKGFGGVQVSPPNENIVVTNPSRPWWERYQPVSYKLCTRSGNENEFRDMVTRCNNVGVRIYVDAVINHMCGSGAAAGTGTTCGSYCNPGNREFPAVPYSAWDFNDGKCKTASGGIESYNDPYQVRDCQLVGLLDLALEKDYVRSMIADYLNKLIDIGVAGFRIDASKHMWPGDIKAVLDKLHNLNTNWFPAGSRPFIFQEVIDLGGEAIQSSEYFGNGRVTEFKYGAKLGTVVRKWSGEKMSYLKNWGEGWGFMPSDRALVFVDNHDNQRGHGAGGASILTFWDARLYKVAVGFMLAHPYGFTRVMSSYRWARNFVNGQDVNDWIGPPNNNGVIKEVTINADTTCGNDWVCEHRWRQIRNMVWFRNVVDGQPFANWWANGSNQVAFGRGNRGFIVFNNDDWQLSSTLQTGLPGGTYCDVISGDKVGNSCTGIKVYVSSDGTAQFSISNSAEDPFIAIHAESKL
Source text: (§1) In the experiment, the concentration of the fixed substrate Gal-G2-α-CNP/pNPG solution was 5 mmol/L, and the concentrations of the two enzymes (100, 200, 300, 400 U/L) were used to determine the effect of different concentrations of porphyrins on enzyme activity. The concentration of the enzyme was 200 U/L, and the concentration of the substrate Gal-G2-α-CNP/pNPG solution (2.5, 5, 7.5, 10 mmol/L) was used to determine the effect of different concentrations of porphyrins on the enzyme-catalyzed substrate activity.
(§2) Upon identifying the type of inhibition, the kinetic equations vary for different inhibition types.
(§3) In the formula, v, Vmax, Km, Ki, and Kis represent the reaction rate, maximum reaction rate, Michaelis constant, and free enzyme inhibition constant, respectively, and the binding enzyme inhibition constant. [S] denotes the substrate concentration. [I] denotes the inhibitor concentration.

α-amylase [2] = target: T1, α-amylase; assay: FTIR secondary structure analysis of α-AMY complexes; conditions: enzyme–porphyrin molar ratio 1:2, amide I band
Source text: (§4) A molar ratio of 1:2 (α-amylase/α-glucosidase)–porphyrin solution was placed in a cryocentrifugal concentrator and the dried solid sample was mixed with dry KBr and measured using a Nicolet IS-50 FTIR Spectrometer (ThermoFisher, Waltham, MA, USA) with a scanning range of 4000–400 cm^−1 and a resolution of 4 cm^−1. The overlapping peaks in the amide I band (1700–1600 cm^−1) were further analyzed into multiple feature sub-peaks, and quantitative analysis of the relative content of various secondary structures in proteins using curve fitting methods was performed.

α-amylase [3] = target: T1, α-amylase; assay: Fluorescence quenching, binding and thermodynamics with α-amylase
Source text: In the α-amylase experiment, a series of porphyrins and amylase (200 U/L) were mixed in a volume ratio of 1:1.
The Stern–Volmer equation [35] was adopted to determine the quenching mechanisms between six porphyrin compounds and both enzymes in the experimental group, with Formula (6):(6) F0/F=1+Ksv[Q]=1+Kqτ0[Q]
The Stern–Volmer equation was adapted based on experimental data to more accurately characterize the quenching behavior [36], with Formula (7):(7) F0/F=e^Ksv[Q]=e^Kqτ0[Q]
In the formula, the fluorescence quenching ratio was calculated as F0/F, where F0 corresponds to the emission intensity of pure α-amylase solution (control) and F denotes the intensity measured after the incremental addition of porphyrin ligands. KSV and Kq denote the Stern–Volmer quenching constant and the bimolecular quenching rate constant, respectively, τ0 (10^−8 s) is the average fluorescence lifetime of the fluorophore in the absence of quencher, and [Q] indicates the concentration of porphyrin compounds.
Due to the presence of an internal filtration effect, a decrease in the fluorescence intensity of the system may occur. Therefore, all fluorescence data were corrected using Formula (8) to eliminate the internal filtration effect.(8) Fcor=Fobse^(Aex+Aem)/2
The evaluation of the interaction forces between porphyrin compounds and the two enzymes can be achieved by calculating thermodynamic parameters. When both ΔH^0 and ΔS^0 are positive, the predominant interaction force is hydrophobic. When both ΔH^0 and ΔS^0 are negative, the main forces are hydrogen bonding and van der Waals forces. When ΔH^0 < 0 and ΔS^0 > 0, the primary interaction is electrostatic attraction.
The thermodynamic parameters were calculated using Formulas (9) and (10), and then the Van’t Hoff plot for the interactions between the porphyrin compounds and the two enzymes was generated by plotting lnKa on the Y-axis versus 1/T on the X-axis.(9) lnKa=−ΔH^0/RT+ΔS^0/R (10) ΔG^0=ΔH^0−TΔS^0=−RTlnKa

α-glucosidase [4] = target: T2, α-glucosidase (Saccharomyces cerevisiae, UniProt P53341); type: biochemical
Source text: as §1, §2, §3

α-glucosidase [5] = target: T2, α-glucosidase; assay: FTIR secondary structure analysis of α-GLU complexes; conditions: enzyme–porphyrin molar ratio 1:2, amide I band
Source text: as §4

[6] = enzyme 100–400 U/L, substrate 5 mmol/L
[7] = enzyme–substrate complex inhibition constant

T2 sequence (P53341 whole entry): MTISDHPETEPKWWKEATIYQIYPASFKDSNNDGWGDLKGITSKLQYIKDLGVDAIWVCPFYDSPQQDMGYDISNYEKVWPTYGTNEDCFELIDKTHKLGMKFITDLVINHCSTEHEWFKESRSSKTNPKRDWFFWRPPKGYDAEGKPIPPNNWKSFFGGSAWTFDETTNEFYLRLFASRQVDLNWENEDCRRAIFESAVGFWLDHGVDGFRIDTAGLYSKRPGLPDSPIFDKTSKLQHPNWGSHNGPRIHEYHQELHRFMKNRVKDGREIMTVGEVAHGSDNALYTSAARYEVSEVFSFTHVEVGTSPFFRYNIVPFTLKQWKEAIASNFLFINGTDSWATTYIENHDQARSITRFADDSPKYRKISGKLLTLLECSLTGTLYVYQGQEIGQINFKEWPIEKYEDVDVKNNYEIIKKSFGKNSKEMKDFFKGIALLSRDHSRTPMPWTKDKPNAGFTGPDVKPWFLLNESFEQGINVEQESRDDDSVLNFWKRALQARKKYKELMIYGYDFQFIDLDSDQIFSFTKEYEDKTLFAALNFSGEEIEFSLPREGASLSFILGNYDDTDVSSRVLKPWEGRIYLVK

How did the Vmax (α-amylase [1]; C 25 μg/mL) turn out when `O=C(O)c1ccc(-c2c3nc(c(-c4ccc(C(=O)O)cc4)c4ccc([nH]4)c(-c4ccc(C(=O)O)cc4)c4nc(c(-c5ccc(C(=O)O)cc5)c5ccc2[nH]5)C=C4)C=C3)cc1` [TCPP] was run?
The Vmax was 0.1046 ± 0.0025 ΔOD/min.

What about the Vmax (α-amylase [1]; C 50 μg/mL) of the same compound?
The Vmax was 0.0872 ± 0.0014 ΔOD/min.

What about the Vmax (α-amylase [1]; C 100 μg/mL) of the same compound?
The Vmax was 0.0709 ± 0.0018 ΔOD/min.

What about the Vmax (α-amylase [1]; C 150 μg/mL) of the same compound?
The Vmax was 0.0583 ± 0.0021 ΔOD/min.

What about the Vmax (α-amylase [1]; C 200 μg/mL) of the same compound?
Its Vmax is 0.0496 ± 0.0007 ΔOD/min.

What about the “type of inhibition of α-amylase” value (α-amylase [1]; Lineweaver–Burk plots) of the same compound?
The value was “mixed type”.

And the “reversibility of inhibition of α-amylase” value (α-amylase [1]; [6])?
Its value is “reversible inhibition”.

And the Kis (α-amylase [1]; [7])?
The Kis was 132.4382 ± 0.1403 µg/mL.

What about the “Random Coil” value (α-amylase [2]) of the same compound?
Its value is 19.84 ± 0.06%.

And the α-Helix (α-amylase [2])?
Its α-Helix is 10.24 ± 0.02%.

And the β-Antiparallel (α-amylase [2])?
The β-Antiparallel was 11.75 ± 0.03%.

What about the β-Sheet (α-amylase [2]) of the same compound?
The β-Sheet was 18.51 ± 0.05%.

And the β-Turn (α-amylase [2])?
Its β-Turn is 39.66 ± 0.09%.

What about the “quenching mechanism of α-amylase fluorescence” value (α-amylase [3]; Stern–Volmer plots, 298–310 K) of the same compound?
The value was “pure static quenching”.

What about the Kq (α-amylase [3]; T 298 K) of the same compound?
The Kq was 4.04 ± 0.01 ×10^12 L/mol/s.

What about the Ksv (α-amylase [3]; T 298 K) of the same compound?
The Ksv was 4.04 ± 0.01 ×10^4 L/mol.

And the “n (number of binding sites)” value (α-amylase [3]; T 298 K)?
The value was 1.36.

What about the “ΔG^0” value (α-amylase [3]; T 298 K) of the same compound?
Its value is -8.315 ± 0.022 kcal/mol.

And the Kq (α-amylase [3]; T 304 K)?
Its Kq is 3.55 ± 0.08 ×10^12 L/mol/s.

What about the Ksv (α-amylase [3]; T 304 K) of the same compound?
The Ksv was 3.55 ± 0.08 ×10^4 L/mol.

What about the “n (number of binding sites)” value (α-amylase [3]; T 304 K) of the same compound?
The value was 1.28.

And the “ΔG^0” value (α-amylase [3]; T 304 K)?
Its value is -7.928 ± 0.017 kcal/mol.

And the Kq (α-amylase [3]; T 310 K)?
The Kq was 3.01 ± 0.07 ×10^12 L/mol/s.

What about the Ksv (α-amylase [3]; T 310 K) of the same compound?
The Ksv was 3.01 ± 0.07 ×10^4 L/mol.

And the “n (number of binding sites)” value (α-amylase [3]; T 310 K)?
Its value is 1.20.

What about the “ΔG^0” value (α-amylase [3]; T 310 K) of the same compound?
The value was -7.572 ± 0.017 kcal/mol.

What about the “ΔH^0” value (α-amylase [3]; Van’t Hoff, 298–310 K) of the same compound?
Its value is -26.778 ± 0.014 kcal/mol.

What about the “ΔS^0” value (α-amylase [3]; Van’t Hoff, 298–310 K) of the same compound?
The value was −259.31 ± 0.09 J/mol/k.

What about the Vmax (α-glucosidase [4]; C 5 μg/mL) of the same compound?
Its Vmax is 0.1369 ± 0.0049 ΔOD/min.

And the Vmax (α-glucosidase [4]; C 25 μg/mL)?
Its Vmax is 0.1016 ± 0.0014 ΔOD/min.

And the Vmax (α-glucosidase [4]; C 50 μg/mL)?
The Vmax was 0.0745 ± 0.0019 ΔOD/min.

And the Vmax (α-glucosidase [4]; C 100 μg/mL)?
Its Vmax is 0.0516 ± 0.0017 ΔOD/min.

And the Vmax (α-glucosidase [4]; C 150 μg/mL)?
The Vmax was 0.0389 ± 0.0006 ΔOD/min.

And the “type of inhibition of α-glucosidase” value (α-glucosidase [4]; Lineweaver–Burk plots)?
The value was “mixed type”.

And the “reversibility of inhibition of α-glucosidase” value (α-glucosidase [4]; [6])?
Its value is “reversible inhibition”.

And the Kis (α-glucosidase [4]; [7])?
Its Kis is 52.5334 ± 0.1408 µg/mL.

And the “Random Coil” value (α-glucosidase [5])?
Its value is 22.15 ± 0.04%.

And the α-Helix (α-glucosidase [5])?
The α-Helix was 22.71 ± 0.05%.

And the β-Antiparallel (α-glucosidase [5])?
Its β-Antiparallel is 9.57 ± 0.02%.

What about the β-Sheet (α-glucosidase [5]) of the same compound?
The β-Sheet was 12.03 ± 0.02%.

What about the β-Turn (α-glucosidase [5]) of the same compound?
Its β-Turn is 33.54 ± 0.07%.
